Consider five compounds from patent US20050089577A1, “Liquid matrix undergoing phase transfer in vivo and liquid oral preparations” (priority 2002, published 2005).

Data set [1] relates to acetic acid ulcer. Put plainly: Therapeutic effect in rat acetic acid chronic ulcer model. The conditions noted are these: 0.5 ml daily once for 2 weeks, eighth week; for Average ulcer coefficient: 3 rats; for Ulcer coefficient: individual rats. In kind it is in vivo, Wister male rats. The source says:
That is, the rats were anesthetized under Nembutal and the belly was cut along the midline to remove the stomach. Then, a cylinder of […] in diameter charged with absorbent cotton impregnated sufficiently with 100% acetic acid was pressed against the border between the stomach and the pyloric region for about 30 seconds, and the acetic acid adhering to the serous membrane was wiped off with a germ-free gauze, and the belly was sutured. After 6 weeks, one rat was picked up as the control at random from the untreated group, killed and dissected to confirm ulcer formation. […] In the seventh and eight weeks, one untreated rat selected at random was killed and the belly was opened to reconfirm formation of stomach ulcer. Each rat was killed in the eight week and the area of the ulcer was measured, and the ulcer coefficient was determined according to a method of Okabe et al. (Okabe S, Roth […] method for experimental penetrating gastric and duodenal ulcers in rats. Observation on normal healing. Amer J Dig Dis 16: 277-284, 1971).

The conditions of data set [2]: rat, in vivo, 20 mg/kg.
Method: These rats were fasted for 24 hours, and then indomethacin (IND) suspended in 1% carboxymethyl cellulose (CMS) solution was administered in a dose of 20 mg/kg to the rats via an oral probe for rat into the stomach to induce indomethacin ulcer.
In data set [3] the test system is indomethacin ulcer. Put plainly: Therapeutic effect in indomethacin ulcer rat model. The conditions noted are these: individual rats; given 3 hours after indomethacin 20 mg/kg; judged after 24 hours; PGE1 3.3 μg/kg. Further details: key: no bleeding was expressed as negative (−); trace bleeding was given (±); dotted bleeding (+); broad bleeding (++). Format: in vivo, Wister male rats. The protocol: 3 hours after administration of indomethacin, prostaglandin (PGE1) liquid preparation No. 41 (containing alprostadil alfadex as the medicine), PGE1 solution dissolved in purified water in a dose of 3.3 μg/kg in weight as a positive control, the liquid matrix only was administered as a negative control, and purified water only for confirming formation of ulcer to the untreated group, respectively, was administered. After 1 hour, the rats were given feed. The untreated group after 3 hours from administration of indomethacin and the other groups after 24 hours were killed, and dissected to judge ulcer and bleeding in the stomach.
Indomethacin ulcer in the fasted rats is different from that in humans, and develops in the stomach without generating in the pyloric vestibule. Therefore, judgment was made on the basis of bleeding. That is, no bleeding was expressed as negative (−), trace bleeding was given (±), dotted bleeding (+), and broad bleeding (++).

Structures are written as SMILES. Values joined by “and” are separate entries in the source; they are usually repeats but may differ in a detail not shown here. Identical values can stand only once. Counter-ions that a name gives are not always drawn.

For `CN/C(=N/CCSCc1nc[nH]c1C)NC#N` [Cimetidine solution, cimetidine], in data set [1], the Average ulcer coefficient is given as 2.67; the Ulcer coefficient was 3 (3 for 21 to 30 mm^2) (2×) and 2 (2 for 11 to 20 mm^2).
Regarding `COc1ccc2c(c1)c(CC(=O)O)c(C)n2C(=O)c1ccc(Cl)cc1` [indomethacin], the “Time at which blood concentration reached the maximum” value in data set [2] (male, Wister) was 3 h. Besides, the “Finding in the stomach” value in data set [2] is “erosive bleeding was observed in the stomach”.
Consider `CCCCC[C@H](O)/C=C/[C@H]1[C@H](O)CC(=O)[C@@H]1CCCCCCC(=O)O` [PEG1 solution, prostaglandin (PGE1)], for which, in data set [3], the “Judgment of bleeding in the stomach” value was “± (3×) and + and −”.
As for `CC(=O)CC/C=C(\C)CC/C=C(\C)CC/C=C(\C)CCC=C(C)C` [Teprenone solution, teprenone], in data set [1], the Average ulcer coefficient was found to be 2.33; the Ulcer coefficient was 3 (3 for 21 to 30 mm^2) and 2 (2 for 11 to 20 mm^2) (2×).
Compound `NC[C@H]1CC[C@H](C(=O)Oc2ccc(CCC(=O)O)cc2)CC1` [Cetraxate HCl solution, cetraxate hydrochloride] displayed an Average ulcer coefficient in data set [1] of 2.33. In addition, in data set [1] (hydrochloride), the Ulcer coefficient is 2 (2 for 11 to 20 mm^2) (2×) and 3 (3 for 21 to 30 mm^2).
